Laboratory results as given in ChEMBL document CHEMBL1123344, “N-Substituted sulfonamide carbonic anhydrase inhibitors with topical effects on intraocular pressure” (J Med Chem, 1986).

How the values were obtained:
Oryctolagus cuniculus [1] = experiment: Compound was evaluated for the intraocular pressure (IOP) in normal rabbits following topical dosing after 100 min; format: functional, Eye
Oryctolagus cuniculus [2] = experiment: Compound was evaluated for the intraocular pressure (IOP) in normal rabbits following topical dosing after 120 min; format: functional, Eye
Oryctolagus cuniculus [3] = experiment: Compound was evaluated for the intraocular pressure (IOP) in normal rabbits following topical dosing after 140 min; format: functional, Eye
Oryctolagus cuniculus [4] = experiment: Compound was evaluated for the intraocular pressure (IOP) in normal rabbits following topical dosing after 160 min; format: functional, Eye
Oryctolagus cuniculus [5] = experiment: Compound was evaluated for the intraocular pressure (IOP) in normal rabbits following topical dosing after 180 min; format: functional, Eye
Oryctolagus cuniculus [6] = experiment: Compound was evaluated for the intraocular pressure (IOP) in normal rabbits following topical dosing after 20 min; format: functional, Eye
Oryctolagus cuniculus [7] = experiment: Compound was evaluated for the intraocular pressure (IOP) in normal rabbits following topical dosing after 40 min; format: functional, Eye
Oryctolagus cuniculus [8] = experiment: Compound was evaluated for the intraocular pressure (IOP) in normal rabbits following topical dosing after 60 min; format: functional, Eye
Oryctolagus cuniculus [9] = experiment: Compound was evaluated for the intraocular pressure (IOP) in normal rabbits following topical dosing after 80 min; format: functional, Eye
Carbonic anhydrase [10] = molecular target: Carbonic anhydrase
Carbonic anhydrase [11] = experiment: Compound was evaluated for the inhibition of Carbonic anhydrase (Competitive); format: protein assay
[12] = buffer, pH 7.2
Description: Solubility, pH 7.2 phosphate buffer at 32 degree C

physchem [13] = settings: octanol/pH 7.2 phosphate buffer
Description: Compound was evaluated for Octanol/pH 7.2 phosphate buffer distribution coefficient

physchem [14] = experiment: physchem
Description: Compound was evaluated for pKa

Oryctolagus cuniculus [15] = experiment: Compound was evaluated for the intraocular pressure (IOP) in normal rabbits following topical dosing after 10 min; format: functional, Eye
Oryctolagus cuniculus [16] = experiment: Compound was evaluated for the intraocular pressure (IOP) in normal rabbits following topical dosing after 110 min; format: functional, Eye
Oryctolagus cuniculus [17] = experiment: Compound was evaluated for the intraocular pressure (IOP) in normal rabbits following topical dosing after 30 min; format: functional, Eye
Oryctolagus cuniculus [18] = experiment: Compound was evaluated for the intraocular pressure (IOP) in normal rabbits following topical dosing after 50 min; format: functional, Eye
Oryctolagus cuniculus [19] = experiment: Compound was evaluated for the intraocular pressure (IOP) in normal rabbits following topical dosing after 70 min; format: functional, Eye
Oryctolagus cuniculus [20] = experiment: Compound was evaluated for the intraocular pressure (IOP) in normal rabbits following topical dosing after 90 min; format: functional, Eye

SMILES | IOP (Oryctolagus cuniculus [1]) [mmHg] | IOP (Oryctolagus cuniculus [2]) [mmHg] | IOP (Oryctolagus cuniculus [6]) [mmHg] | IOP (Oryctolagus cuniculus [7]) [mmHg] | IOP (Oryctolagus cuniculus [8]) [mmHg] | IOP (Oryctolagus cuniculus [9]) [mmHg] | Ki (Carbonic anhydrase [10]) [nM] | Papp [cm/s] | Solubility [12] [M l-1] | logD (physchem [13]) | pKa (physchem [14]) | other results
CN(O)S(=O)(=O)c1ccc(Cl)cc1 | 0.67 | 0.33 | 0.17 | 1 | -1.25 | 0.17 | 107 | – | – | – | – | IOP (Oryctolagus cuniculus [3]): -0.33 mmHg; IOP (Oryctolagus cuniculus [4]): -0.25 mmHg; IOP (Oryctolagus cuniculus [5]): -0.25 mmHg
CNS(=O)(=O)c1nnc(NC(C)=O)s1 | – | – | – | – | – | – | – | 2.26e-06 | 0.00144 | 0.32 | 7.52 | Ki (Carbonic anhydrase [11]): 258 nM
CNS(=O)(=O)c1ccc([N+](=O)[O-])cc1 | – | – | – | – | – | – | 146 | – | – | – | – | –
NS(=O)(=O)c1ccc(Cl)cc1 [P-CHLOROBENZENESULFONAMIDE] | – | – | – | – | – | – | – | 0.0000547 | 0.0223 | 1.24 | 9.95 | –
CNS(=O)(=O)c1ccc(Cl)cc1 | – | – | – | – | – | – | 584 | 0.0000651 | 0.0208 | 1.92 | 11 | –
CN(O)S(=O)(=O)c1ccc([N+](=O)[O-])cc1 | -0.5 | -1 | -0.33 | -1.67 | -1.67 | -1.67 | 44 | – | – | – | – | IOP (Oryctolagus cuniculus [15]): 0.33 mmHg; IOP (Oryctolagus cuniculus [16]): -0.33 mmHg; IOP (Oryctolagus cuniculus [17]): -0.67 mmHg; IOP (Oryctolagus cuniculus [18]): -1.83 mmHg; IOP (Oryctolagus cuniculus [19]): -2 mmHg; IOP (Oryctolagus cuniculus [20]): 0.2 mmHg
